Test results taken from patent US11872260B2, “Mint essential oils inhibit HRASQ61L mutant keratinocyte activity and prevent skin carcinogenesis” (ACADEMIA SINICA, priority 2018, dated 2024).

Tests used:
B16 melanoma cells = test: Depigmentation assay (melanin absorbance 405 nm); type: cell-based, Murine; conditions: 24 h; 15 and 25 μg/mL LM-EO, 100 μg/mL KA
Procedure: B16 cells (1×10^6 cells/15-cm dish) were treated with vehicle (0.5% DMSO), 15 and 25 μg/mL LM-EO (LM15 and LM25), or 100 μg/mL kojic acid (KA100) for 6, 12, 24 h. After washing with PBS for two times, the cells were harvested by cell scrapper and centrifugation. The cell pellets were then taken a photo before dissolved in 1 N NaOH at 60° C. for 1 h. The volume of NaOH used to dissolve the cell pellets were adjusted based on the cell populations to yield the equal concentration. The absorbance was then measured at 405 nm.

tyrosinase in B16 cells = test: Western blot of tyrosinase in B16 cells; type: cell-based, Murine; conditions: 6, 12, 24 h
Procedure: (§1) Cells were treated with EOs or compounds at the indicated concentrations and lysed in RIPA lysis buffer. Protein concentrations were measured by DC protein assay (Bio-Rad, United States). Western blotting was performed as described by Shyur et al. Protein samples were separated by 10 or 12% SDS-PAGE, and electro-transferred onto PVDF membranes (Merck Millipore, United States). The membranes were blocked with 5% skimmed milk in TBST for 1 h at room temperature. After washing the membranes three times with TBST, membranes were incubated with appropriate primary antibodies overnight (12-16 h) at 4° C. The membranes were washed with TBST three times, followed by incubation with horseradish peroxidase (HRP)-conjugated anti-mouse IgG or anti-rabbit IgG secondary antibodies for 2 h at room temperature. Reactive protein bands were visualized using enhanced chemiluminescent detection reagents (GE Healthcare, United States) and exposed to chemiluminescence light film (GE Healthcare, United States). The expression levels of targeted proteins were quantified by ImageJ software (National Institutes of Health, United States).

cdc2 in PDV cells = test: Western blot p-cdc2/cdc2; type: cell-based, mouse; conditions: 24 h; KWM-EO 75 μg/mL, LM-EO 75 μg/mL, L+C 60 μg/mL, PLX4032 0.5 μM, each alone
Procedure: as §1

[1] = test system: DMBA/TPA/PLX4032-induced skin papilloma; test: Two-stage skin carcinogenesis, DMBA/TPA accelerated by PLX4032; type: in vivo, FVB/NJNarl mice
Procedure: Female FVB/NJNarl mice (5-6 weeks old) were randomized into 9 groups, each group contained 8 mice. Mice had their back hair shaved three days before topical application of 25 μg 7,12-dimethylbenz[a]anthracene (DMBA) in 200 μL acetone. The first week after tumor initiation, 4 μg of 12-O-tetradecanoylphorbol-13-acatate (TPA) in 200 μL acetone was topically applied twice a week to the shaved back skin for 12 weeks. Mice were treated with the indicated concentrations of mint EOs or compounds (in 200 μL acetone) twice a week by topical application the day after TPA treatment for 12 weeks. Tumor size of more than 1 mm diameter was counted every week. After mice were sacrificed, internal organs (heart, liver, spleen, lung, and kidneys), serum, skin and papillomas were collected and fixed with 10% formalin or stored at −80° C.

[2] = test system: epidermis of mouse dorsal skin; test: Histopathology (H&E) of mouse skin from two-stage skin carcinogenesis; type: in vivo, FVB mice; conditions: intraperitoneal PLX4032 in DMBA/TPA skin
patients = patients treated with PLX4032; cited from earlier work

Structure (SMILES) | depigmentation effect (melanin) (B16 melanoma cells) | tyrosinase expression (tyrosinase in B16 cells) | ratio of phospho-cdc2 to cdc2, increase vs vehicle (cdc2 in PDV cells) [fold] | swelling of the spleen, effect of PLX4032 ([1]; PLX4032 in DMBA/TPA mice) | tumor multiplicity, effect of PLX4032 on DMBA/TPA mice ([1]; intraperitoneal PLX4032) | proliferation and hyperplasia of the epidermis, effect of PLX4032 [2] | patients developing squamous cell carcinoma (SCC) and keratoacanthoma (KA) (patients)
O=c1cc(CO)occ1O [KA, Kojic acid] | depigmentation effect with statistical significance | time-dependently inhibited tyrosinase expression |  |  |  |  | 
CCCS(=O)(=O)Nc1ccc(F)c(C(=O)c2c[nH]c3ncc(-c4ccc(Cl)cc4)cc23)c1F [PLX4032, vemurafenib] |  |  | 2.1 | exacerbated the swelling of the spleen | greatly increased the tumor multiplicity | exacerbated the proliferation and hyperplasia of the epidermis | 20-30%
